Data from PubChem BioAssay (NCI).
“And” between values parts separate entries of the source, which are not always exact repeats. Equal entries are not always repeated.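 Exposure lasted 48 hours, with cells grown in 96-well plates and compounds tested at five concentrations. The concentration for 50% growth inhibition is given as GI50. At the TGI there is no net growth.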

Tests used:
Assay in all cases: growth of human tumour cells (NCI), 48 h
IGROV1 ovarian = system: IGROV1 ovarian
DU-145 prostate = system: DU-145 prostate
CCRF-CEM leukemia = system: CCRF-CEM leukemia
SK-MEL-5 melanoma = system: SK-MEL-5 melanoma
KM12 colon = system: KM12 colon
MOLT-4 leukemia = system: MOLT-4 leukemia
SNB-75 CNS = system: SNB-75 CNS
SK-MEL-28 melanoma = system: SK-MEL-28 melanoma
SF-268 CNS = system: SF-268 CNS
SNB-19 CNS = system: SNB-19 CNS

Compound | GI50 (IGROV1 ovarian) [µM] | TGI (IGROV1 ovarian) [µM] | TGI (DU-145 prostate) [µM] | GI50 (CCRF-CEM leukemia) [µM] | TGI (CCRF-CEM leukemia) [µM] | GI50 (SK-MEL-5 melanoma) [µM] | TGI (SK-MEL-5 melanoma) [µM] | TGI (KM12 colon) [µM] | GI50 (MOLT-4 leukemia) [µM] | TGI (MOLT-4 leukemia) | GI50 (SNB-75 CNS) [µM] | TGI (SNB-75 CNS) [µM] | TGI (SK-MEL-28 melanoma) [µM] | GI50 (SF-268 CNS) [µM] | GI50 (SNB-19 CNS) [µM] | TGI (SNB-19 CNS) [µM] | GI50 (DU-145 prostate) [µM] | GI50 (KM12 colon) [µM] | GI50 (SK-MEL-28 melanoma) [µM] | TGI (SF-268 CNS) [µM]
Nc1nc(N)c2cc(CNc3ccc(C(=O)NC(CC(=O)O)C(=O)O)c(Cl)c3)ccc2n1 (stereo not given) | 223 | > 500 | > 500 | 0.05 | > 500 | 0.05 | > 500 | > 500 | 0.05 | > 31.6 µM and 316 µM | 71.7 | > 500 | > 4.64 | 0.189 | 0.05 | > 500 | – | – | – | –
COc1ccc2c(c1)C(C)Cc1c(ncnc1-n1cnc3cc(C)ccc31)N2C (stereo not given) | 0.254 | 14.5 | 12.1 | 0.0324 | 14.5 | 0.0753 | 0.589 | 11.7 | 0.247 | 12.9 µM | 0.0529 | 19.9 | 19.8 | 0.222 | 0.216 | 20.4 | 0.325 | 0.132 | 0.575 | 15
COC(=O)CCC1=C(CC(=O)OC)C(C)=N/C1=C\c1[nH]c(-c2ccc[nH]2)cc1OC | 4.21 | 28.6 | 22.6 | 1.68 | 29.8 | 1.44 | 3.23 | 15 | 2.31 | 20.1 µM | 4.9 | 19.1 | 25 | 5.95 | 11.6 | 31.1 | 5.87 | 2.67 | 12.3 | 21.3
COc1ccc2c3c(Nc4ccc(/C(C)=N/O)cc4)[nH]c4ccccc4c-3c(N=O)c2c1 | 15 | 29.2 | 4.79 | 1.09 | 2.92 | 3.76 | 14.8 | 4.39 | 0.951 | 2.84 µM | 44.9 | 75.3 | 50.6 | 1.07 | 22.9 | 51.9 | 2.04 | 1.13 | 27 | 34.9
C[C@]12CC[C@@H]3c4ccc(O)c([N+](=O)[O-])c4CC[C@H]3[C@@H]1CC[C@@H]2NS(=O)(=O)c1cccc(Br)c1 | 3.22 | 9.35 | 12.4 | 2.65 | 10.4 | 1.67 | 3.11 | 4.05 | 2.98 | 13.4 µM | 1.19 | 2.7 | 3.67 | 2.99 | 3.53 | 14.1 | 3.6 | 1.89 | 1.85 | 10.3
COC(=O)c1cc(/C=C/c2ccc(S(N)(=O)=O)cc2)ccc1O | 25.7 | > 100 | > 100 | 41 | > 100 | 14.5 | 35.5 | > 100 | 73.1 | > 100 µM | 57 | > 100 | > 100 | 37.3 | 38.2 | > 100 | 15.9 | 24 | 95.5 | > 100
C/C(=N\NC(=S)N1CC2CCC(CC2)C1)c1ccccn1 | < 0.01 | 2.29 | 2.83 | 0.0335 | – | 0.133 | 0.852 | 1.59 | 0.0598 | 3.74 µM | 0.643 | 2.07 | 2.93 | 0.185 | 0.345 | 3.78 | 0.408 | 0.0837 | 0.767 | 2.4
Cn1cc(-c2ccc(-c3cncc(Cl)c3N3CCC4(CCNC4=O)CC3)cc2)cn1 | 68 | > 100 | > 100 | 44.5 | > 100 | 40.3 | > 100 | > 100 | 15.5 | > 100 µM | 34.8 | > 100 | > 100 | 61.2 | > 100 | > 100 | 50.3 | 33.3 | 79.2 | > 100
S=C1SC2=Nc3ccccc3CN2C2=NCCN12 | 7.88 | > 100 | > 100 | 36.7 | > 100 | 14.8 | 55.5 | > 100 | 39.9 | > 100 µM | 17.4 | > 100 | > 100 | > 100 | > 100 | > 100 | > 100 | > 100 | > 100 | > 100
